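48-hour exposure; five concentrations; linearly interpolated endpoints. Here, GI50 denotes the concentration required for 50% inhibition of growth.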 Active and inactive are the calls of the source. Cut-off read from the data, not from the text of the source: active = GI50 up to about 1.1 µM and inactive = higher.
What was measured:
Experiment in all cases: NCI anticancer screen, dose series, 48 h
SF-295 = test system: SF-295
BT-549 = test system: BT-549
DU-145 = test system: DU-145
MOLT-4 = test system: MOLT-4
SK-OV-3 = test system: SK-OV-3
PC-3 = test system: PC-3
HOP-62 = test system: HOP-62
KM12 = test system: KM12
U-251 = test system: U-251
OVCAR-3 = test system: OVCAR-3
IGROV-1 = test system: IGROV-1
EKVX = test system: EKVX
NCI-H460 = test system: NCI-H460
NCI-H522 = test system: NCI-H522
NCI/ADR-RES = test system: NCI/ADR-RES
ACHN = test system: ACHN
UACC-62 = test system: UACC-62
NCI-H226 = test system: NCI-H226
OVCAR-5 = test system: OVCAR-5
RPMI-8226 = test system: RPMI-8226
SNB-75 = test system: SNB-75
A549 = test system: A549
Hs-578T = test system: Hs-578T
HOP-92 = test system: HOP-92
CAKI-1 = test system: CAKI-1
M14 = test system: M14
TK-10 = test system: TK-10
SK-MEL-2 = test system: SK-MEL-2
HT-29 = test system: HT-29
HCC 2998 = test system: HCC 2998
OVCAR-4 = test system: OVCAR-4
Malme-3M = test system: Malme-3M
786-0 = test system: 786-0
HCT-116 = test system: HCT-116
HL-60 = test system: HL-60
MDA-MB-231 = test system: MDA-MB-231
T47D = test system: T47D
K562 = test system: K562
SF-539 = test system: SF-539
SF-268 = test system: SF-268
HCT-15 = test system: HCT-15
SW-620 = test system: SW-620
UACC-257 = test system: UACC-257
SK-MEL-5 = test system: SK-MEL-5
MCF7 = test system: MCF7
NCI-H23 = test system: NCI-H23
SN12C = test system: SN12C
RXF 393 = test system: RXF 393
MDA-MB-435 = test system: MDA-MB-435
SR = test system: SR
SNB-19 = test system: SNB-19
COLO 205 = test system: COLO 205
MDA-N = test system: MDA-N
SK-MEL-28 = test system: SK-MEL-28
CCRF-CEM = test system: CCRF-CEM
OVCAR-8 = test system: OVCAR-8
LOX IMVI = test system: LOX IMVI
UO-31 = test system: UO-31
A498 = test system: A498

Measured: GI50

COc1ccc2[nH]c3c(C)c4ncccc4c(C)c3c2c1
inactive: SF-295 2.43 µM | BT-549 > 10 µM | DU-145 7.55 µM | MOLT-4 4.04 µM | SK-OV-3 > 10 µM | PC-3 6.11 µM | HOP-62 6.84 µM | KM12 1.93 µM | U-251 8.43 µM | OVCAR-3 2.71 µM | IGROV-1 > 10 µM | EKVX 4.97 µM | NCI-H460 2.12 µM | NCI-H522 > 10 µM | NCI/ADR-RES 3.12 µM | ACHN 5.2 µM | UACC-62 > 10 µM | NCI-H226 4.41 µM | OVCAR-5 5.61 µM | RPMI-8226 3.44 µM | SNB-75 9.91 µM | A549 2.18 µM | Hs-578T > 10 µM | HOP-92 8.34 µM | CAKI-1 > 10 µM | M14 1.64 µM | TK-10 > 10 µM | SK-MEL-2 > 10 µM | HT-29 2.22 µM | HCC 2998 8.97 µM | OVCAR-4 7.43 µM | Malme-3M 1.65 µM | 786-0 1.52 µM | HCT-116 3.4 µM | HL-60 3.01 µM | MDA-MB-231 > 10 µM | T47D > 10 µM | K562 3.68 µM | SF-539 4.73 µM | SF-268 > 10 µM | SW-620 1.98 µM | UACC-257 > 10 µM | SK-MEL-5 > 10 µM | MCF7 2.02 µM | NCI-H23 > 10 µM | SN12C 4.78 µM | RXF 393 3.59 µM | MDA-MB-435 1.82 µM | SR 5.22 µM | SNB-19 > 10 µM | COLO 205 6.95 µM | MDA-N 6.81 µM | SK-MEL-28 1.99 µM | CCRF-CEM 3.85 µM | OVCAR-8 3.73 µM
2.99 µM: HCT-15

CCc1oc2ccccc2c1C(=O)c1cc(Br)c(O)c(Br)c1 [BENZBROMARONE]
27.6 µM: HCT-15
inactive: SF-295 31.8 µM | BT-549 28.2 µM | DU-145 43.3 µM | MOLT-4 26.9 µM | SK-OV-3 37.8 µM | LOX IMVI 24.7 µM | PC-3 20 µM | HOP-62 34.3 µM | KM12 20.7 µM | U-251 17.3 µM | OVCAR-3 18.2 µM | IGROV-1 33.7 µM | UO-31 21.6 µM | EKVX 30.7 µM | NCI-H460 18.4 µM | NCI-H522 19.9 µM | NCI/ADR-RES 31.6 µM | ACHN 17.5 µM | UACC-62 16.9 µM | NCI-H226 22.1 µM | OVCAR-5 21.4 µM | RPMI-8226 29 µM | SNB-75 18.9 µM | A549 34.8 µM | Hs-578T 24.5 µM | HOP-92 24.1 µM | CAKI-1 36.1 µM | M14 28.9 µM | TK-10 24.7 µM | SK-MEL-2 19.8 µM | HT-29 30.3 µM | OVCAR-4 30 µM | Malme-3M 19.1 µM | 786-0 29.9 µM | HCT-116 22.4 µM | HL-60 13.6 µM | MDA-MB-231 20.5 µM | T47D 19.9 µM | K562 30.9 µM | SF-539 17.1 µM | SF-268 28.1 µM | SW-620 35.6 µM | UACC-257 19.3 µM | SK-MEL-5 17.4 µM | MCF7 23.7 µM | NCI-H23 24.5 µM | SN12C 26 µM | A498 20.5 µM | RXF 393 15.3 µM | MDA-MB-435 29.7 µM | SR 23.5 µM | SNB-19 36.1 µM | COLO 205 20.9 µM | MDA-N 30.2 µM | SK-MEL-28 41.4 µM | CCRF-CEM 26.4 µM | OVCAR-8 32.7 µM

CC(NC(=O)c1ccccc1)(C(=O)O)C(=O)O
inactive: SF-295 > 100 µM | BT-549 > 100 µM | DU-145 > 100 µM | MOLT-4 > 100 µM | SK-OV-3 > 100 µM | LOX IMVI > 100 µM | PC-3 > 100 µM | HOP-62 > 100 µM | KM12 > 100 µM | U-251 > 100 µM | OVCAR-3 > 100 µM | IGROV-1 > 100 µM | UO-31 > 100 µM | EKVX > 100 µM | NCI-H460 > 100 µM | NCI-H522 > 100 µM | NCI/ADR-RES > 100 µM | ACHN > 100 µM | UACC-62 > 100 µM | NCI-H226 > 100 µM | OVCAR-5 > 100 µM | RPMI-8226 > 100 µM | SNB-75 > 100 µM | A549 > 100 µM | Hs-578T > 100 µM | HOP-92 83 µM | CAKI-1 > 100 µM | M14 > 100 µM | TK-10 > 100 µM | SK-MEL-2 > 100 µM | HT-29 > 100 µM | OVCAR-4 > 100 µM | Malme-3M > 100 µM | 786-0 > 100 µM | HCT-116 > 100 µM | HL-60 > 100 µM | MDA-MB-231 > 100 µM | T47D > 100 µM | K562 > 100 µM | SF-539 > 100 µM | SF-268 > 100 µM | SW-620 > 100 µM | UACC-257 > 100 µM | SK-MEL-5 > 100 µM | MCF7 > 100 µM | NCI-H23 > 100 µM | SN12C > 100 µM | A498 > 100 µM | RXF 393 > 100 µM | MDA-MB-435 > 100 µM | SR > 100 µM | SNB-19 > 100 µM | COLO 205 > 100 µM | MDA-N > 100 µM | SK-MEL-28 > 100 µM | CCRF-CEM > 100 µM | OVCAR-8 > 100 µM
> 100 µM: HCT-15

CC(C)OP(=O)(OC(C)C)C(C)(C)O
> 100 µM: HCT-15
inactive: SF-295 > 100 µM | BT-549 > 100 µM | DU-145 > 100 µM | MOLT-4 > 100 µM | SK-OV-3 > 100 µM | LOX IMVI > 100 µM | PC-3 > 100 µM | HOP-62 > 100 µM | KM12 > 100 µM | U-251 > 100 µM | OVCAR-3 > 100 µM | IGROV-1 > 100 µM | UO-31 > 100 µM | EKVX > 100 µM | NCI-H522 > 100 µM | NCI/ADR-RES > 100 µM | ACHN > 100 µM | UACC-62 > 100 µM | NCI-H226 > 100 µM | OVCAR-5 > 100 µM | RPMI-8226 > 100 µM | SNB-75 > 100 µM | A549 > 100 µM | Hs-578T > 100 µM | HOP-92 > 100 µM | CAKI-1 > 100 µM | M14 > 100 µM | TK-10 > 100 µM | SK-MEL-2 > 100 µM | HT-29 > 100 µM | HCC 2998 > 100 µM | OVCAR-4 > 100 µM | Malme-3M > 100 µM | 786-0 > 100 µM | HCT-116 > 100 µM | HL-60 83.2 µM | MDA-MB-231 > 100 µM | T47D > 100 µM | K562 > 100 µM | SF-539 > 100 µM | SF-268 > 100 µM | SW-620 > 100 µM | UACC-257 > 100 µM | SK-MEL-5 > 100 µM | MCF7 > 100 µM | NCI-H23 > 100 µM | SN12C > 100 µM | RXF 393 > 100 µM | MDA-MB-435 > 100 µM | SR > 100 µM | SNB-19 > 100 µM | COLO 205 > 100 µM | MDA-N > 100 µM | SK-MEL-28 > 100 µM | CCRF-CEM > 100 µM | OVCAR-8 > 100 µM

CCOC(=O)C(NCc1cccc(C(F)(F)F)c1)(NC(=O)c1ccccc1)C(F)(F)F (stereo unspecified)
23.1 µM: HCT-15
inactive: SF-295 44.1 µM | BT-549 20.5 µM | DU-145 46.5 µM | MOLT-4 26.1 µM | SK-OV-3 78.3 µM | LOX IMVI 19.9 µM | PC-3 30.5 µM | HOP-62 37.9 µM | KM12 28.1 µM | U-251 34 µM | OVCAR-3 22.8 µM | IGROV-1 23.7 µM | UO-31 18.1 µM | EKVX 24.2 µM | NCI-H522 17.6 µM | NCI/ADR-RES 18.8 µM | ACHN 25.9 µM | UACC-62 13.9 µM | NCI-H226 27.2 µM | OVCAR-5 71.1 µM | RPMI-8226 9.1 µM | SNB-75 27.4 µM | A549 22.9 µM | Hs-578T 47.1 µM | HOP-92 27.2 µM | CAKI-1 14.4 µM | M14 27.8 µM | TK-10 30.1 µM | SK-MEL-2 21.4 µM | HT-29 19.6 µM | HCC 2998 26.1 µM | OVCAR-4 21.6 µM | Malme-3M 21.7 µM | 786-0 28.5 µM | HCT-116 28.5 µM | HL-60 86.9 µM | MDA-MB-231 11.5 µM | T47D 22.2 µM | K562 26.7 µM | SF-539 24.2 µM | SF-268 47.9 µM | SW-620 28.1 µM | UACC-257 18 µM | SK-MEL-5 30.5 µM | MCF7 43.3 µM | NCI-H23 21.8 µM | SN12C 31.2 µM | RXF 393 9.08 µM | MDA-MB-435 24.3 µM | SR > 100 µM | SNB-19 71.9 µM | COLO 205 16.4 µM | MDA-N 34 µM | SK-MEL-28 22.1 µM | CCRF-CEM > 100 µM | OVCAR-8 32.4 µM

Reference: ChEMBL document CHEMBL1201862, “PubChem BioAssay data set” (2004)
